Laboratory results as given in patent publication US20110217309A1, “BIOLOGICAL MARKERS PREDICTIVE OF ANTI-CANCER RESPONSE TO INSULIN-LIKE GROWTH FACTOR-1 RECEPTOR KINASE INHIBITORS” (priority 2010, published 2011).

How the values were obtained:
Test in all cases: Cell Titer Glo proliferation assay, 88 cell line panel
Format in all cases: cell-based, human
NCI-H446 = NCI-H446 SCLC, PTEN mutant, 72 hours
Procedure: (§1) Proliferation Assay. […] The basis of the assay is a luminescent quantitation of ATP present in a cell culture plate well. In essence, the greater the number of viable cells in the well, the greater the level of ATP present. The assay utilizes a substrate that binds ATP to produce a luminescent signal, which can be read on a luminometer. Unless otherwise noted, the manufacturer's instructions were followed exactly. Briefly, on Day 1, cells were plated in 120 μl of 10% serum-containing growth media at a density of 4000 cells/well in a white polystyrene 96 well assay plate. […] After 72 h incubation with the inhibitor, the cells were assayed. Results were calculated as a fraction of the DMSO controlled cells.
(§2) This included cell lines representing ovarian cancer (A2780 and EFO-27), SCCHN (HSC-4), SCLC (NCI-H446), CRC (KM12), lymphoma (MC116), breast cancer (BT549 and HCC70), and prostate cancer (PC3).

BT549 = BT549 breast cancer, PTEN mutant, 72 hours
Procedure: as §1, §2

MC116 = MC116 lymphoma, PTEN mutant, 72 hours
Procedure: as §1, §2

KM12 = KM12 CRC, PTEN mutant, 72 hours
Procedure: as §1, §2

Measured: sensitivity to OSI-906

C[C@]1(O)C[C@@H](c2nc(-c3ccc4ccc(-c5ccccc5)nc4c3)c3c(N)nccn32)C1 [OSI-906, cis-3-[8-amino-1-(2-phenyl-quinolin-7-yl)-imidazo[1,5-a]pyrazin-3-yl]-1-methyl-cyclobutanol]
insensitive (insensitive (EC50>10 μM)): all assays above
